Measured values reported in the supplement of paper PMC10307832.

Experiments:
Test in all cases: relative viability (nuclei count vs DMSO), 5 days (fraction); higher = more cells survive
Fedratinib + Trametinib = compound: Cc1cnc(Nc2ccc(OCCN3CCCC3)cc2)nc1Nc1cccc(S(=O)(=O)NC(C)(C)C)c1 [Fedratinib] + CC(=O)Nc1cccc(-n2c(=O)n(C3CC3)c(=O)c3c(Nc4ccc(I)cc4F)n(C)c(=O)c(C)c32)c1 [Trametinib] (partner 0.02 µM)
Summary of the method: (§1)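 A single step with final 0.05% Triton X-100, 1% formaldehyde and 1 ug/ml Hoechst fixed the cells and stained nuclei 5 days after treatment. Lung cancer cell lines in 1536-well plates had been treated by pin tool the day after seeding with one drug alone or a fixed anchor-drug dose plus five library-drug doses (not always all listed) in √10 steps, and nuclei were counted on 4× images. Relative viability is the ratio of nuclei in treated wells to nuclei in vehicle wells, taken as the median of duplicate plates.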

GW-2580 + Navitoclax = compound: COC1=CC=C(C=C1)COC2=C(C=C(C=C2)CC3=CN=C(N=C3N)N)OC [GW-2580] + CC1(C)CCC(c2ccc(Cl)cc2)=C(CN2CCN(c3ccc(C(=O)NS(=O)(=O)c4ccc(N[C@H](CCN5CCOCC5)CSc5ccccc5)c(S(=O)(=O)C(F)(F)F)c4)cc3)CC2)C1 [Navitoclax] (partner 0.5 µM)
Summary of the method: as §1

Fedratinib = compound: Cc1cnc(Nc2ccc(OCCN3CCCC3)cc2)nc1Nc1cccc(S(=O)(=O)NC(C)(C)C)c1 [Fedratinib]
Summary of the method: (§2)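 Viability here means nuclei in treated wells divided by nuclei in vehicle wells, reported as the median across plates. Only plates with control CV below 25% and at least one doubling passed. Lung cancer cell lines in 1536-well plates were exposed to five √10-spaced library-drug doses for 5 days and counted from 4× Hoechst images in MetaXpress.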

GW-2580 = compound: COC1=CC=C(C=C1)COC2=C(C=C(C=C2)CC3=CN=C(N=C3N)N)OC [GW-2580]
Summary of the method: as §2

GW-2580 + Foretinib = compound: COC1=CC=C(C=C1)COC2=C(C=C(C=C2)CC3=CN=C(N=C3N)N)OC [GW-2580] + COc1cc2c(Oc3ccc(NC(=O)C4(C(=O)Nc5ccc(F)cc5)CC4)cc3F)ccnc2cc1OCCCN1CCOCC1 [Foretinib] (partner 0.25 µM)
Summary of the method: as §1

Cell Line | relative viability (Fedratinib + Trametinib; first compound 0.1 µM) | relative viability (Fedratinib + Trametinib; first compound 0.3162 µM) | relative viability (Fedratinib + Trametinib; first compound 1 µM) | relative viability (GW-2580 + Navitoclax; first compound 0.08 µM) | relative viability (GW-2580 + Navitoclax; first compound 0.8 µM) | relative viability (GW-2580 + Navitoclax; first compound 2.53 µM) | relative viability (GW-2580 + Navitoclax; first compound 8 µM) | relative viability (Fedratinib; 0.1 µM) | relative viability (Fedratinib; 0.3162 µM) | relative viability (Fedratinib; 1 µM) | relative viability (GW-2580; 0.08 µM) | relative viability (GW-2580; 0.8 µM) | relative viability (GW-2580; 2.53 µM) | relative viability (GW-2580; 8 µM) | relative viability (GW-2580 + Foretinib; first compound 0.08 µM) | relative viability (GW-2580 + Foretinib; first compound 0.8 µM) | relative viability (GW-2580 + Foretinib; first compound 2.53 µM) | relative viability (GW-2580 + Foretinib; first compound 8 µM)
HCC-44 | 1.15 | 1.01 | 1.11 | 1.09 | 1.03 | 0.97 | 0.897 | 0.963 | 0.982 | 0.882 | 0.981 | 1.03 | 0.896 | 1.01 |  |  |  | 
HCC-827 | 0.515 | 0.567 | 0.503 | 1.06 | 0.952 | 0.898 | 0.92 | 1.07 | 1.01 | 1.03 | 1.06 | 1.05 | 1.04 | 0.965 | 1.13 | 1.02 | 1.02 | 0.905
NCI-H1623 |  |  |  |  |  |  |  | 1.04 | 0.987 | 0.935 | 0.947 | 0.998 | 0.828 | 0.96 | 0.866 | 1.01 | 0.725 | 0.986
NCI-H2347 | 0.252 | 0.27 | 0.27 | 0.899 | 0.777 | 0.708 | 0.804 | 1.04 | 0.932 | 0.938 | 0.989 | 1.1 | 0.88 | 1.07 | 0.739 | 0.885 | 0.586 | 1.17
NCI-H1563 |  |  |  |  |  |  |  | 0.949 | 1.04 | 0.933 | 0.982 | 0.966 | 0.876 | 0.912 | 0.886 | 0.961 | 0.886 | 0.905
ABC-1 |  |  |  |  |  |  |  | 0.827 | 0.954 | 0.816 | 0.956 | 1.14 | 0.869 | 0.883 | 1.09 | 1.16 | 0.931 | 0.86
NCI-H522 | 0.675 | 0.62 | 0.681 |  |  |  |  | 0.971 | 1.16 | 0.758 | 0.969 | 0.9 | 0.957 | 0.996 |  |  |  | 
SW 900 | 0.748 | 0.802 | 0.798 |  |  |  |  | 0.78 | 0.847 | 0.768 | 0.767 | 0.876 | 0.833 | 0.771 | 0.831 | 0.905 | 1.37 | 0.878
A549 |  |  |  | 1.38 | 1.25 | 1.12 | 0.918 | 0.998 | 0.937 | 0.958 | 1.01 | 1.12 | 0.944 | 0.932 | 1.01 | 0.577 | 1.06 | 0.902
NCI-H1792 | 0.365 | 0.364 | 0.449 | 0.534 | 0.816 | 0.26 | 0.668 | 0.835 | 0.989 | 0.815 | 0.939 | 1.18 | 0.92 | 0.842 |  |  |  | 
NCI-H1703 |  |  |  | 1.11 | 1.15 | 1.1 | 1.06 | 0.518 | 0.794 | 0.686 | 0.855 | 0.991 | 1.02 | 0.919 | 0.404 | 0.378 | 0.346 | 0.342
LCLC-103H | 0.699 | 0.683 | 0.659 |  |  |  |  | 0.952 | 1 | 0.932 | 0.999 | 0.909 | 0.977 | 0.927 | 0.979 | 0.865 | 0.83 | 0.676
Calu-6 |  |  |  | 0.932 | 0.868 | 0.782 | 0.877 | 1.03 | 1.04 | 0.971 | 1.12 | 1.1 | 0.96 | 1.04 | 0.866 | 0.898 | 0.915 | 0.858
NCI-H358 | 0.126 | 0.125 | 0.111 |  |  |  |  | 0.999 | 0.911 | 0.884 | 0.965 | 1.03 | 0.874 | 0.789 | 0.761 | 0.79 | 0.679 | 0.557
NCI-H1648 | 0.383 | 0.441 | 0.43 |  |  |  |  | 0.889 | 0.901 | 0.694 | 0.82 |  | 0.929 | 0.888 |  |  |  | 
EBC-1 |  |  |  | 0.418 | 0.37 | 0.369 | 0.37 | 0.893 | 0.988 | 0.878 | 1.07 | 1.17 | 0.889 | 0.949 | 0.0973 | 0.114 | 0.107 | 0.0908
NCI-H1299 |  |  |  | 1.09 | 1.06 | 1.06 | 0.97 | 1.01 | 1.03 | 1 | 1.08 | 1.03 | 1 | 0.937 | 1.17 | 1.09 | 0.981 | 0.971
NCI-H2342 | 0.858 | 1.1 | 1.01 |  |  |  |  | 1.08 | 1.06 | 0.994 | 0.921 | 1.05 | 0.775 | 0.97 | 1.02 | 1.05 | 0.942 | 1.07
IA-LM |  |  |  | 0.895 | 0.88 | 0.723 | 0.782 | 1.01 | 0.87 | 0.931 | 0.849 | 1.1 | 0.913 | 0.936 | 1.17 | 1.28 | 1.26 | 0.952
NCI-H650 | 1.04 | 1.04 | 0.869 |  |  |  |  | 0.709 | 0.892 | 0.418 | 0.974 | 1.04 | 0.817 | 0.961 | 1.06 | 1.05 | 0.932 | 0.94
NCI-H661 | 0.511 | 0.622 | 0.409 |  |  |  |  | 0.876 | 1.06 | 0.914 | 1.03 | 1.04 | 0.951 | 0.814 | 1.08 | 0.987 | 1.03 | 0.771
